Data on 4 substances can be found in patent US20240325548A1, “DYNAMIC BIOACTIVE SCAFFOLDS AND THERAPEUTIC USES THEREOF AFTER CNS INJURY” (Northwestern University, priority 2021, published 2024).

Data set [1] has as its target T1, β1-INTEGRIN (ITGB1) (Homo sapiens, UniProt P05556).
T1 construct: endogenous in cells; host or cells: hNPCs differentiated from human embryonic stem cells HUES 64
Nature of the data set: ITGB1 activation and intracellular signaling in hNPCs treated with IKVAV PAs (confocal microscopy, WB). The class given is cell-based. Particulars: for activation of ITGB1 and downstream pathway (ILK, p-FAK/FAK) with Ca2+ added: PA mixed with 5 mM CaCl2; for active ITGB1 and downstream effectors ILK and p-FAK: relative to other IKVAV PAs, IKVAV peptide, laminin or ornithine. The source says:
Neural progenitor cells (NPCs) were differentiated from human embryonic stem cells HUES 64 (Harvard University) (see FIG. 2C). In short, 70% confluent stem cell cultures grown in Matrigel (Thermo Fisher) coated plates with mTESR medium (STEMCELL Technologies), were switched to N2B27 medium (50% DMEM: F12, 50% Neurobasal, supplemented with NEAA, Glutamax, N2 and B27; Gibco) containing dual SMAD inhibitors (SB431542, DNSK International and LDN-193189, Tocris) for 12 days to induce the generation of neural progenitors. Neuralization was enhanced by supplementing medium with laminin from day 5 to 12. Next, neural rosettes were dissociated with neural rosette selection reagent (STEMCELL Technologies) to obtain NPCs, which are expanded in N2B27 (Gibco) medium supplemented with bFGF (Millipore). For experimentation in the different PA platforms, NPCs were dissociated with Accutase (Innovative Cell technology), and cultured in the distinct platforms with DMEM: F12+N2+B27 medium with hyclone penicillin-streptomycin (GE Healthcare) and ascorbic acid (0.2 μg/mL; Sigma-Aldrich).
For IKVAV PA treatments, hNPCs were cultured on ornithine coatings (German Glass, Chemglass Life Science) in 6 well and 24 well plates at a density of 500,000 cells/well and 80,000 cells/well respectively. hNPCs were treated with […] of IKVAV PAs ([PA]=6 mM, [KCl]=3 mM, [NaCl]=150 mM) or recombinant laminin protein (10 mg/mL) in solution. IKVAV PA2 and IKVAV PA5 were also mixed with 5 mM CaCl2) at a ratio PA:CaCl2) 6:1 to treat hNPCs. For 2D experiments, hNPCs were cultured on the different IKVAV PAs or laminin coatings in 6 well and 24 well plates at densities mentioned above. For co-assembled experiments, hNPCs were cultured on the different co-assembled PA coatings in 6 well and 24 well plates at a density of 400,000 cells/well and 50,000 cells/well respectively.
hNPCs were fed 4 times a week with DMEM: F12+N2^+B27 medium with hyclone penicillin-streptomycin and ascorbic acid. After 24 h, 72 h 1- or 2-weeks in vitro, cell lysates were harvested or fixed for WB or ICC, respectively. Three replicates per condition and at least three independent experiments were carried out for all conditions investigated.
For immunofluorescence, fixed primary cultures or free-floating tissue sections (40 m Thick) were incubated in blocking buffer containing 0.02% Triton-X (Sigma-Aldrich), 1% NHS (Gibco) and PBS 1× (Gibco). Samples were incubated with primary antibodies over night at 4° C. Alexa-488, Alexa-555 and/or Alexa-647 (1:500, Thermofisher) were used as secondary antibodies. DAPI (1:500, Thermofisher) was used to stain nuclei. Finally, the samples were mounted on coverslips with Immu-Mount (Fisher Scientific) solution for imaging.
RIPA buffer (Thermofisher) with a cocktail of Halt Protease and Phosphatase Inhibitors (Thermofisher) was used to extract protein from in vitro and in vivo samples. For in vivo studies, spinal cord tissue was then sonicated using a horn sonicator (Branson) to break up the tissue. A Pierce™ BCA Protein Assay Kit (Thermofisher) was used to determine protein content for all samples used. Protein extracts obtained from cell cultures or tissue were separated using an SDS-polyacrylamide gel and electro-transferred to a nitrocellulose membrane (Bio-Rad). Membranes were blocked for 30 minutes to 1 hour using a 5% milk solution (Bio-Rad) and incubated over night with primary antibodies. Corresponding secondary HRP-conjugated antibodies (1:1000, ThermoFisher) were used for 1 h at room temperature. Radiance Bioluminescent ECL substrate (Azure Biosystems) was used to detect protein signal. The membranes were imaged using the Azure Biosystems imager and densitometry analysis were performed using ImageJ software.

The nature of data set [2]: Fluorescence depolarization (FD) with DPH encapsulated in PA nanofibers. The class given is physicochemical. Particulars: for supramolecular motion on addition of Ca2+: 5 mM CaCl2, confirmed by FD and T2-NMR; for fluorescence anisotropy: DPH probe in hydrophobic core of IKVAV PA nanofibers. On the procedure:
An aqueous solution of 100 μL of annealed PA ([PA]=6 mM, [KCl]=3 mM, [NaCl]=150 mM) was added a THF solution (2 μL) of 1,6-diphenyl-1,3,5-hexatriene (DPH; 1.4 mM), and the mixture was incubated for 30 min at 25° C. Then, the mixture was diluted with aqueous KCl and NaCl (1900 μL, [KCl]=3 mM, [NaCl]=150 mM), incubated for 10-30 min at 25° C. to afford a solution of DPH (1.4 μM)-embedded PA (300 μM). To obtain IKVAV PA2 (A2G2) or IKVAV PA5 (G4) in the presence of CaCl2), 5 mM CaCl2) was then added to the DPH-embedded PA aqueous solution to afford PA: CaCl2) at a molar ratio of 6:1. DPH was exited at 336 nm and emission was recorded at 450 nm on an ISS model PC1 spectrofluorometer with a 300 W xenon arc lamp with power of 18 A. Excitation slit and emission slit widths were set as 1 mm (8 nm bandwidth). Anisotropy was calculated using the following equation: […]
Where F∥ represents the parallel intensity to the excitation plane, F⊥ is the perpendicular intensity to the excitation plane, g is grating factor (G-factor) that represents the intensity ratio of the sensitivity of the detection system for vertically and horizontally polarized light. G-factors were determined individually in each measurement. Results were averaged based on 34 iterations from two measurements.

T1 sequence (P05556 21-798): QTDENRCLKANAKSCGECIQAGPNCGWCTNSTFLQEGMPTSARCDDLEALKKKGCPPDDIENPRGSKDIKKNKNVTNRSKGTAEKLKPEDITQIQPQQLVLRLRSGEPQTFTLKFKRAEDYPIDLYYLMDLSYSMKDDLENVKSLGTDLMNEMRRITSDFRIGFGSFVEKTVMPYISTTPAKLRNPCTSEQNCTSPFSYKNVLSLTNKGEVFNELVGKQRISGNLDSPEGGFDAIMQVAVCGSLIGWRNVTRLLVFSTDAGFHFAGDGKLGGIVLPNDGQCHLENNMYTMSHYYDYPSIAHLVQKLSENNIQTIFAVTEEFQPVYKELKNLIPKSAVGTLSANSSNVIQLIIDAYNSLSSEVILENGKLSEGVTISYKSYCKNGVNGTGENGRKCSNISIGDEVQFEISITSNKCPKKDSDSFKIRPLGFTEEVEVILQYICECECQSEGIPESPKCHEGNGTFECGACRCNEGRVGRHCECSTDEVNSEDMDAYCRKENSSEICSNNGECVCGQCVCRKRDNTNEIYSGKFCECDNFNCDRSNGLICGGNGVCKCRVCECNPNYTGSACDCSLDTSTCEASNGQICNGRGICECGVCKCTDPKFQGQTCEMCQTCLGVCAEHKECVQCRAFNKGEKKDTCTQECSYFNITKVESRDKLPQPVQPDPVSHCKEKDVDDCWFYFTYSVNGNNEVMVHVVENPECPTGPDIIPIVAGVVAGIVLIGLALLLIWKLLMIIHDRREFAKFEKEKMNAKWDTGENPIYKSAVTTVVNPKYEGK

C16-A2G2E4GIKVAV [IKVAV PA2]: in data set [1], the “activation of ITGB1 and downstream pathway (ILK, p-FAK/FAK) with Ca2+ added” value is listed as “decreased”; the “active ITGB1 and downstream effectors ILK and p-FAK” value is on record as “substantially higher”. For the same substance, in data set [2], the “supramolecular motion on addition of Ca2+” value is recorded as “suppressed” and the fluorescence anisotropy came to 0.21.

Consider C16-G4E4GIKVAV [IKVAV PA5], for which, in data set [1], the “activation of ITGB1 and downstream pathway (ILK, p-FAK/FAK) with Ca2+ added” value is reported as “decreased”; the “active ITGB1 and downstream effectors ILK and p-FAK” value is “substantially higher”. In data set [2], the “supramolecular motion on addition of Ca2+” value is on record as “suppressed” and the fluorescence anisotropy was 0.18.

Turning to C16-V2A2E4GIKVAV [IKVAV PA1], the “in vitro bioactivity (summary)” value in data set [1] was “low level of in vitro bioactivity”.

As for C16-VAG2E4GIKVAV [IKVAV PA4], in data set [1], the “in vitro bioactivity (summary)” value was “low level of in vitro bioactivity”; the “active ITGB1 and downstream effectors ILK and p-FAK” value was “intermediate level of activation”. Besides, the fluorescence anisotropy in data set [2] is recorded as 0.30.
